The subject of data set [1] is männl. Maus 16-20 g. As to conditions: male mouse 16-20 g, approximate range.
Data set [2] relates to männl. Ratte 80-100 g. As to conditions: male rat 80-100 g, approximate range.
The nature of data set [3]: Osmolality of contrast agent solutions. The data set is classed as physicochemical. As to conditions: for Osmolalität von 300 mg I/ml Lösungen wäßrige Lösung: aqueous solution; for Osmolalität von 300 mg I/ml Lösungen pharmazeutisch formul. Lösung: pharmaceutically formulated solution.
For data set [4] the following is noted: values marked * (Laut Literaturangabe); cited from earlier work.
Data set [5] in a line: Viscosity of contrast agent solutions at 37 °C. The note with it: for Viskosität von 300 mg I/ml bei 37 °C: pharmaceutically formulated solution, determined in applicant's laboratory. The data set is classed as physicochemical.

Like-named read-outs stand apart in the source and are kept apart here. Marks after values point to notes of the source that are not given here.

For `CC(=O)N(CC(O)CO)c1c(I)c(C(=O)NCC(O)CO)c(I)c(C(=O)NCC(O)CO)c1I` (centres unmarked) [Iohexol], in data set [1], the “Näherungsbereich i.v. LD₅₀ männl. Maus 16-20 g” value is reported as 16-17 g I/kg. In addition, the “Näherungsbereich i.v. LD₅₀ männl. Ratte 80-100 g” value in data set [2] is 11,5-12,5 g I/kg.

Take `C[C@H](O)C(=O)Nc1c(I)c(C(=O)NC(CO)CO)c(I)c(C(=O)NC(CO)CO)c1I` [Iopamidol]: the “Näherungsbereich i.v. LD₅₀ männl. Maus 16-20 g” value in data set [1] is recorded as 16-18 g I/kg. Further, in data set [2], the “Näherungsbereich i.v. LD₅₀ männl. Ratte 80-100 g” value is reported as 12-13 g I/kg. Further, in data set [3], the “Osmolalität von 300 mg I/ml Lösungen wäßrige Lösung” value worked out at 671 mOsm and the “Osmolalität von 300 mg I/ml Lösungen pharmazeutisch formul. Lösung” value worked out at 704 mOsm. Moreover, in data set [4], the “Viskosität von 300 mg I/ml bei 37 °C” value was 4,7* cps.

Turning to `COCC(=O)Nc1c(I)c(C(=O)NCC(O)CO)c(I)c(C(=O)N(C)CC(O)CO)c1I` (centres unmarked) [Iopromid], the “Näherungsbereich i.v. LD₅₀ männl. Maus 16-20 g” value in data set [1] is recorded as 14-16 g I/kg. For the same compound, the “Näherungsbereich i.v. LD₅₀ männl. Ratte 80-100 g” value in data set [2] is on record as 11-12 g I/kg. Also, in data set [3], the “Osmolalität von 300 mg I/ml Lösungen wäßrige Lösung” value amounted to 607 mOsm and the “Osmolalität von 300 mg I/ml Lösungen pharmazeutisch formul. Lösung” value stood at 630 mOsm. Besides, the “Viskosität von 300 mg I/ml bei 37 °C” value in data set [4] is recorded as 4,6* cps.

For the compound `CC(=O)N(CC(O)CO)c1c(I)c(C(=O)NCCO)c(I)c(C(=O)NCC(O)CO)c1I` (centres unmarked) [Ioxilan, reference compound], in data set [5], the “Viskosität von 300 mg I/ml bei 37 °C” value is 4,7 cps. In addition, the “Näherungsbereich i.v. LD₅₀ männl. Maus 16-20 g” value in data set [1] is 16-18 g I/kg. For the same compound, the “Näherungsbereich i.v. LD₅₀ männl. Ratte 80-100 g” value in data set [2] was 12-13 g I/kg. Further, in data set [3], the “Osmolalität von 300 mg I/ml Lösungen wäßrige Lösung” value turned out to be 560 mOsm and the “Osmolalität von 300 mg I/ml Lösungen pharmazeutisch formul. Lösung” value was determined as 588 mOsm.

Consider `CC(=O)N(CCO)c1c(I)c(C(N)=O)c(I)c(C(=O)NC(CO)C(O)CO)c1I` (stereo not drawn) [Verbindung 11, 5-{N-(2-Hydroxyethylacetamido)}-2,4,6-triiod-3-{N-(1,3,4-trihydroxy-threo-but-2-yl)}carbamoyl-Benzamid], for which the “Viskosität von 300 mg I/ml bei 37 °C” value in data set [5] was 4,2 cps. Moreover, the “Viskosität bei 37 °C” value in data set [5] (injection solution 300 mg I/ml, CaNa2-EDTA 56 mg, Trinatriumcitrat 77 mg per 100 ml, pH 5,0 bis 6,0, 37 °C) is 4,2 Centipoise; in data set [5] (injection solution 350 mg I/ml, CaNa2-EDTA 56 mg, Trinatriumcitrat 77 mg per 100 ml, pH 5,0 bis 6,0, 37 °C) it was 6,6 Centipoise; in data set [5] (injection solution 400 mg I/ml, CaNa2-EDTA 56 mg, Trinatriumcitrat 77 mg per 100 ml, pH 5,0 bis 6,0, 37 °C) it was 13,1 Centipoise. For the same compound, the “Näherungsbereich i.v. LD₅₀ männl. Maus 16-20 g” value in data set [1] is 15,5-16,5 g I/kg. Moreover, the “Näherungsbereich i.v. LD₅₀ männl. Ratte 80-100 g” value in data set [2] was 15,5-17,5 g I/kg. The “Osmolalität von 300 mg I/ml Lösungen wäßrige Lösung” value in data set [3] was determined as 300 mOsm. Moreover, the “Osmolalität von 300 mg I/ml Lösungen pharmazeutisch formul. Lösung” value in data set [3] was determined as 326 mOsm. The Osmolalität was 301 mOsm/kg in data set [3] (injection solution 300 mg I/ml, CaNa2-EDTA 56 mg, Trinatriumcitrat 77 mg per 100 ml, pH 5,0 bis 6,0, autoclaved); 337 mOsm/kg in data set [3] (injection solution 350 mg I/ml, CaNa2-EDTA 56 mg, Trinatriumcitrat 77 mg per 100 ml, pH 5,0 bis 6,0, autoclaved); 370 mOsm/kg in data set [3] (injection solution 400 mg I/ml, CaNa2-EDTA 56 mg, Trinatriumcitrat 77 mg per 100 ml, pH 5,0 bis 6,0, autoclaved).

`CC(=O)N(CC(O)CO)c1c(I)c(C(N)=O)c(I)c(C(=O)NCC(O)CO)c1I` (centres unmarked) [Verbindung 19, 5-{N-(2,3-Dihydroxypropyl)acetamido}-2,4,6-triiod-3-{N-(2,3-dihydroxypropyl)}carbamoyl-Benzamid]: the “Viskosität von 300 mg I/ml bei 37 °C” value in data set [5] is reported as 4,1 cps. Also, the “Viskosität bei 37 °C” value is on record as 4,1 Centipoise in data set [5] (injection solution 300 mg I/ml, CaNa2-EDTA 10 mg, Tris 121 mg per 100 ml, pH 7,0, 37 °C); 6,6 Centipoise in data set [5] (injection solution 350 mg I/ml, CaNa2-EDTA 10 mg, Tris 121 mg per 100 ml, pH 7,0, 37 °C); 10,6 Centipoise in data set [5] (injection solution 400 mg I/ml, CaNa2-EDTA 10 mg, Tris 121 mg per 100 ml, pH 7,0, 37 °C). For the same compound, the “Näherungsbereich i.v. LD₅₀ männl. Maus 16-20 g” value in data set [1] is 14-16 g I/kg. For the same compound, the “Näherungsbereich i.v. LD₅₀ männl. Ratte 80-100 g” value in data set [2] was 13-14 g I/kg. Also, the “Osmolalität von 300 mg I/ml Lösungen wäßrige Lösung” value in data set [3] worked out at 365 mOsm. Also, the “Osmolalität von 300 mg I/ml Lösungen pharmazeutisch formul. Lösung” value in data set [3] worked out at 390 mOsm. In addition, the Osmolalität in data set [3] (injection solution 300 mg I/ml, CaNa2-EDTA 10 mg, Tris 121 mg per 100 ml, pH 7,0, autoclaved) worked out at 399 mOsm/kg; in data set [3] (injection solution 350 mg I/ml, CaNa2-EDTA 10 mg, Tris 121 mg per 100 ml, pH 7,0, autoclaved), 473 mOsm/kg; in data set [3] (injection solution 400 mg I/ml, CaNa2-EDTA 10 mg, Tris 121 mg per 100 ml, pH 7,0, autoclaved), 510 mOsm/kg.

Regarding `CN(C(=O)CO)c1c(I)c(C(N)=O)c(I)c(C(=O)NC(CO)C(O)CO)c1I` (stereo not drawn) [Verbindung 41, 5-{N-(Methyl)-2-hydroxyacetamido}-2,4,6-triiod-3-{N-(1,3,4-trihydroxy-threo-but-2-yl)}-carbamoyl-Benzamid], the “Viskosität von 300 mg I/ml bei 37 °C” value in data set [5] was 3,5 cps. Moreover, in data set [1], the “Näherungsbereich i.v. LD₅₀ männl. Maus 16-20 g” value is reported as 16-17,5 g I/kg. The “Näherungsbereich i.v. LD₅₀ männl. Ratte 80-100 g” value in data set [2] is 15-17 g I/kg. Besides, in data set [3], the “Osmolalität von 300 mg I/ml Lösungen wäßrige Lösung” value worked out at 314 mOsm and the “Osmolalität von 300 mg I/ml Lösungen pharmazeutisch formul. Lösung” value worked out at 322 mOsm.

The record behind these values is patent EP0406992A2, “New non-ionic carboxamide contrast agent” (SCHERING AKTIENGESELLSCHAFT, priority 1989, dated 1991).
